Measured values published in PubChem BioAssay (NCI).
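Briefly, cells in 96-well plates were exposed to five compound concentrations for 48 h, and endpoints were estimated by linear interpolation. Definition used: TGI = concentration required for complete inhibition of growth.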

Columns and labels:
Assay in all cases: inhibition of tumour cell growth, NCI panel, 48 h
T-47D breast = tested on: T-47D breast
BT-549 breast = tested on: BT-549 breast
RXF 393 renal = tested on: RXF 393 renal
PC-3 prostate = tested on: PC-3 prostate
UACC-257 melanoma = tested on: UACC-257 melanoma
A498 renal = tested on: A498 renal
M14 melanoma = tested on: M14 melanoma
NCI-H23 lung = tested on: NCI-H23 lung
KM12 colon = tested on: KM12 colon
RPMI-8226 leukemia = tested on: RPMI-8226 leukemia
HT29 colon = tested on: HT29 colon
MCF7 breast = tested on: MCF7 breast
SNB-75 CNS = tested on: SNB-75 CNS
OVCAR-5 ovarian = tested on: OVCAR-5 ovarian
SW-620 colon = tested on: SW-620 colon
HOP-92 NSCLC = tested on: HOP-92 NSCLC
MDA-N = tested on: MDA-N
TK-10 renal = tested on: TK-10 renal
NCI-H460 lung = tested on: NCI-H460 lung
U251 CNS = tested on: U251 CNS
UACC-62 melanoma = tested on: UACC-62 melanoma
HCT-116 colon = tested on: HCT-116 colon
COLO 205 colon = tested on: COLO 205 colon
MALME-3M melanoma = tested on: MALME-3M melanoma
SK-MEL-2 melanoma = tested on: SK-MEL-2 melanoma
HCT-15 colon = tested on: HCT-15 colon
SNB-19 CNS = tested on: SNB-19 CNS
786-0 renal = tested on: 786-0 renal
IGROV1 ovarian = tested on: IGROV1 ovarian
SK-MEL-5 melanoma = tested on: SK-MEL-5 melanoma
HL-60(TB) leukemia = tested on: HL-60(TB) leukemia
HS 578T breast = tested on: HS 578T breast
A549 NSCLC = tested on: A549 NSCLC
HOP-62 NSCLC = tested on: HOP-62 NSCLC
MDA-MB-231 breast = tested on: MDA-MB-231 breast
SK-MEL-28 melanoma = tested on: SK-MEL-28 melanoma
HCC-2998 colon = tested on: HCC-2998 colon
NCI-H226 lung = tested on: NCI-H226 lung
SN12C renal = tested on: SN12C renal
UO-31 renal = tested on: UO-31 renal
MOLT-4 leukemia = tested on: MOLT-4 leukemia
ACHN renal = tested on: ACHN renal
K-562 leukemia = tested on: K-562 leukemia
OVCAR-8 ovarian = tested on: OVCAR-8 ovarian
EKVX NSCLC = tested on: EKVX NSCLC
CCRF-CEM leukemia = tested on: CCRF-CEM leukemia
DU-145 prostate = tested on: DU-145 prostate
OVCAR-4 ovarian = tested on: OVCAR-4 ovarian
SR leukemia = tested on: SR leukemia
SF-268 CNS = tested on: SF-268 CNS
SF-539 CNS = tested on: SF-539 CNS
CAKI-1 renal = tested on: CAKI-1 renal
SK-OV-3 ovarian = tested on: SK-OV-3 ovarian
NCI-H522 lung = tested on: NCI-H522 lung
LOX IMVI melanoma = tested on: LOX IMVI melanoma
OVCAR-3 ovarian = tested on: OVCAR-3 ovarian
NCI/ADR-RES ovarian = tested on: NCI/ADR-RES ovarian
SF-295 CNS = tested on: SF-295 CNS
MDA-MB-435 = tested on: MDA-MB-435

In the case of `CCOC(=O)CCC(NC(=O)C(CCC(=O)OCC)NC(=O)C(Cc1ccc([N+](=O)[O-])cc1)NC(C)=O)C(=O)NNC(=O)OC(C)(C)C` (stereo not drawn), the TGI (T-47D breast) was > 100 µM, the TGI (BT-549 breast) was > 100 µM and the TGI (RXF 393 renal) was 32.9 µM. The TGI (PC-3 prostate) was > 100 µM, the TGI (UACC-257 melanoma) was > 100 µM and the TGI (A498 renal) was > 100 µM. For the same compound, the TGI (M14 melanoma) was > 100 µM, the TGI (NCI-H23 lung) was > 100 µM and the TGI (KM12 colon) was > 100 µM. The TGI (RPMI-8226 leukemia) was > 100 µM, the TGI (HT29 colon) was > 100 µM and the TGI (MCF7 breast) was > 100 µM. The TGI (SNB-75 CNS) was > 100 µM, the TGI (OVCAR-5 ovarian) was > 100 µM and the TGI (SW-620 colon) was > 100 µM. The TGI (HOP-92 NSCLC) was > 100 µM, the TGI (MDA-N) was > 100 µM and the TGI (TK-10 renal) was > 100 µM. For the same compound, the TGI (NCI-H460 lung) was > 100 µM, the TGI (U251 CNS) was > 100 µM and the TGI (UACC-62 melanoma) was > 100 µM. The TGI (HCT-116 colon) was > 100 µM, the TGI (COLO 205 colon) was > 100 µM and the TGI (MALME-3M melanoma) was > 100 µM. For the same compound, the TGI (SK-MEL-2 melanoma) was > 100 µM, the TGI (HCT-15 colon) was > 100 µM and the TGI (SNB-19 CNS) was > 100 µM. The TGI (786-0 renal) was > 100 µM, the TGI (IGROV1 ovarian) was > 100 µM and the TGI (SK-MEL-5 melanoma) was > 100 µM. The TGI (HL-60(TB) leukemia) was > 100 µM, the TGI (HS 578T breast) was > 100 µM and the TGI (A549 NSCLC) was > 100 µM. For the same compound, the TGI (HOP-62 NSCLC) was > 100 µM, the TGI (MDA-MB-231 breast) was > 100 µM and the TGI (SK-MEL-28 melanoma) was > 100 µM. For the same compound, the TGI (HCC-2998 colon) was > 100 µM, the TGI (NCI-H226 lung) was > 100 µM and the TGI (SN12C renal) was > 100 µM. For the same compound, the TGI (UO-31 renal) was > 100 µM, the TGI (MOLT-4 leukemia) was > 100 µM and the TGI (ACHN renal) was > 100 µM. For the same compound, the TGI (K-562 leukemia) was > 100 µM, the TGI (OVCAR-8 ovarian) was > 100 µM and the TGI (EKVX NSCLC) was > 100 µM.
For `C[C@]12CCC(=O)C=C1CC[C@@H]1[C@@H]2CC[C@]2(C)C(=O)/C(=C/c3ccncc3)C[C@@H]12`, the TGI (T-47D breast) was 66 µM, the TGI (BT-549 breast) was 42.5 µM and the TGI (RXF 393 renal) was 31.4 µM. For the same compound, the TGI (PC-3 prostate) was 25.6 µM, the TGI (UACC-257 melanoma) was 28.6 µM and the TGI (M14 melanoma) was 29.4 µM. The TGI (CCRF-CEM leukemia) was > 100 µM, the TGI (NCI-H23 lung) was 56.2 µM and the TGI (KM12 colon) was 38.3 µM. The TGI (RPMI-8226 leukemia) was 35.2 µM, the TGI (HT29 colon) was 32.7 µM and the TGI (MCF7 breast) was 24.1 µM. The TGI (DU-145 prostate) was 29.2 µM, the TGI (OVCAR-4 ovarian) was 55.1 µM and the TGI (SR leukemia) was 27.1 µM. The TGI (SNB-75 CNS) was 45.1 µM, the TGI (OVCAR-5 ovarian) was 34.2 µM and the TGI (SW-620 colon) was > 100 µM. It also gave a TGI (SF-268 CNS) of 45 µM, a TGI (HOP-92 NSCLC) of 42.8 µM and a TGI (MDA-N) of 54.3 µM. It also gave a TGI (TK-10 renal) of 38.5 µM, a TGI (NCI-H460 lung) of 29.7 µM and a TGI (SF-539 CNS) of 46.1 µM. It also gave a TGI (U251 CNS) of 25.7 µM, a TGI (UACC-62 melanoma) of 25.6 µM and a TGI (HCT-116 colon) of 23 µM. The TGI (COLO 205 colon) was 27.4 µM, the TGI (MALME-3M melanoma) was 33.8 µM and the TGI (SK-MEL-2 melanoma) was 28.9 µM. For the same compound, the TGI (HCT-15 colon) was 48.8 µM, the TGI (SNB-19 CNS) was 26.8 µM and the TGI (CAKI-1 renal) was 43.7 µM. It also gave a TGI (786-0 renal) of 31.3 µM, a TGI (IGROV1 ovarian) of 61.9 µM and a TGI (SK-MEL-5 melanoma) of 22.1 µM. The TGI (HL-60(TB) leukemia) was 31.8 µM, the TGI (HS 578T breast) was > 100 µM and the TGI (A549 NSCLC) was 46.5 µM. The TGI (SK-OV-3 ovarian) was 56.7 µM, the TGI (HOP-62 NSCLC) was 32.5 µM and the TGI (MDA-MB-231 breast) was 31.1 µM. It also gave a TGI (NCI-H522 lung) of 33.8 µM, a TGI (LOX IMVI melanoma) of 30.8 µM and a TGI (OVCAR-3 ovarian) of 27.1 µM. It also gave a TGI (SK-MEL-28 melanoma) of 45 µM, a TGI (HCC-2998 colon) of 30.9 µM and a TGI (NCI-H226 lung) of 34.6 µM. The TGI (SN12C renal) was 39.4 µM, the TGI (UO-31 renal) was 26.6 µM and the TGI (NCI/ADR-RES ovarian) was > 100 µM. The TGI (MOLT-4 leukemia) was 64.9 µM, the TGI (SF-295 CNS) was 36.1 µM and the TGI (MDA-MB-435) was 44.9 µM. For the same compound, the TGI (ACHN renal) was 30.5 µM, the TGI (K-562 leukemia) was > 100 µM and the TGI (OVCAR-8 ovarian) was 90.2 µM. It also gave a TGI (EKVX NSCLC) of 35.6 µM.
